The assay deals with heart. As to the kind of experiment: In vivo swine study of carbachol alone vs carbachol plus propranolol, intracoronary, to induce ventricular asystole. As to conditions: individual swine. The protocol: Eleven male crossbred swine weighing 20-25 kg were studied, eight of which received carbachol alone and three of which received carbachol plus propranolol. The swine were sedated using 10 mg/kg IV ketamine. After 20 minutes, the animals were induced with 10 mg/kg IV thiopental sodium and orotracheally intubated. The proper anesthetic plane was maintained with 1% Isoflurane. Periodic arterial blood gas samples were obtained to guide ventilator management. The electrocardiograph was continuously monitored. Through a 7 Fr sheath in the left femoral artery, arterial blood samples were obtained and a micromanometer was inserted to monitor central aortic blood pressure (Millar Instruments, Inc., Houston, Tex.). The heart was exposed through a median sternotomy and suspended in a pericardial cradle. Two temporary epicardial pacing wires were affixed to the right ventricle and connected to an external pacemaker (Medtronic, Inc., Minneapolis, Minn.). The pacemaker was modified to permit deactuation by means of depressing a foot pedal. Through the femoral sheath, an AR-1 guide (Cordis Corp., Miami Lakes, Fla.) was placed into the right coronary artery. An 0.014-inch floppy guide wire was then advanced into the right coronary artery to the level of the posterior descending coronary artery. The AR-1 guide was removed and a 2.5 Fr Tracker (Cordis Corp., Miami Lakes, Fla.) catheter was inserted over the guide wire. Using dye injection, the catheter was positioned just proximal to the take-off of the atrioventricular node artery. Carbachol (Sigma St. Louis, Mo.) solution was prepared the day of the experiment and infused at a constant rate using a Harvard pump.
Animals received either carbachol alone or carbachol in combination with propranolol (Inderal®, Wyeth Ayerst, Philadelphia, Pa.). All animals were instrumented and allowed 10 minutes of hemodynamic stability. Before carbachol was administered, each subject received a 500 ml IV bolus of 0.9% sodium chloride.
In the animals receiving carbachol plus propranolol, a 1 mg dose of propranolol (0.04-0.05 mg/kg) was administered through the Tracker catheter. Carbachol was then administered as a 0.5 mg intracoronary bolus (0.02 mg/kg) followed by a constant infusion. […] After carbachol-mediated ventricular asystole was observed, the heart was paced at 100 beats/minute. […] The systolic blood pressure (SBP), diastolic blood pressure (DBP), and […] arterial pressure (MAP) were recorded every five minutes. The duration of ventricular asystole, defined in this example as a heart rate less than twelve beats per minute, was recorded. […] After 75 minutes, the carbachol infusion was stopped and the time required to return to normal sinus rhythm was recorded.

The results in this text go back to patent US6711436B1, “Compositions, apparatus and methods for facilitating surgical procedures” (priority 1997, dated 2004).

The structures appear in SMILES notation. Values joined by “and” are separate entries in the source; they are usually repeats but may differ in a detail not shown here. Identical values can stand only once.

On to `C[N+](C)(C)CCOC(N)=O.[Cl-]` [carbachol, carbamyl choline chloride], for which the “time to NSR (normal sinus rhythm)” value (after carbachol infusion was stopped (after 75 minutes)) is 8 min and 3 min. Moreover, the “duration of ventricular asystole” value (asystole defined as heart rate less than twelve beats per minute, pacemaker turned off 5 s at 60-second intervals) is 87 min and 75 min (2×) and 53 min and 24 min and 76 min (2×) and 47 min. Moreover, under “intracoronary infusion”, the “carbachol dose (infusion rate per body weight) achieving ventricular asystole” value is 86.0 μg/kg/min and 12.2 μg/kg/min and 9.7 μg/kg/min and 20.9 μg/kg/min and 41.9 μg/kg/min and 10.7 μg/kg/min (2×) and 31.0 μg/kg/min. The “infusion rate of carbachol necessary to achieve ventricular asystole” value (intracoronary infusion, doses increased until ventricular asystole observed, combination arm: 1 mg propranolol then 0.5 mg carbachol bolus before infusion) is 1.72 mg/min and 0.44 mg/min (5×) and 0.88 mg/min and 0.62 mg/min.
